Reference: EP4613273A1, “TREATMENT OF BONE LOSS” (priority 2024, dated 2025)
Structures can show the parent of a compound that is named as a salt. Where two headings read alike, the source gives them in different places.

Columns and labels:
[1] = Safety of 14-day repeated oral administration in healthy beagle dogs; type: in vivo
Experimental: Compound Ib besylate salt (referred to as MIV-701 besylate salt) was administered once daily for 14 days to 3 healthy beagle dogs at three different doses: 1 mg/kg, 10 mg/kg and 100 mg/kg.
The doses were consecutively administered for 14 days with a >5-day washout period between two dose levels.
Each treatment period can be resumed as follows: • J0 (T+24h): first Compound Ib besylate salt administration, withdrawal of blood samples for pharmacokinetic and plasma CTX-1 assessment (pre-dose and 0.5h, 1h, 2h, 4h, 8h and 24h after drug administration), pre-dose blood samples for hematology and clinical biochemistry (baseline values for safety assessment). • J1 to J12: pre-dose blood samples • J13: last Compound Ib besylate salt administration, withdrawal of plasma samples for pharmacokinetic and plasma CTX-1 assessment (pre-dose and 0.5h, 1h, 2h, 4h, 8h and 24h after drug administration), pre-dose sampling for hematology and clinical biochemistry (baseline values for safety assessment). • J15-J≥19: washout period.

[2] = Tolerance, hematology, biochemistry and calcium during 90-day treatment in dogs with periodontal disease; type: in vivo; design: Platelet: unit not given here; settings: for Alanine transferase / Albumin / Albumin/Globulin ratio / Alkalin phosphatase / BUN/Creatinine ratio / Basophil / Creatinine / Eosinophil / Globulin / Glucose / HCT / HGB / Lymphocyte / MCH / MCHC / MCV / Monocyte / Neutrophil / Platelet / RBC / Reticulocyte / Total calcium / Total protein / Urea: mean
Experimental: The present study was performed on 10 Beagle dogs suffering from alveolar bone loss induced by spontaneously developed periodontal disease. All dogs were treated with MIV-701 besylate salt for minimum 30 day and maximum 90 days, depending on the tolerance at intermediate visits. The product is administrated to the dog by its owner at home, once a day with a meal.
There were two treatment groups: • Group A (5 dogs) with a dose of 25 mg/kg. • Group B (5 dogs) with a dose of 50 mg/kg.
Treatment was administrated for 90 days. Every 30 days, based on the results of clinical exam, blood parameters and potential occurrence of adverse events suspected to be drug-related, the treatment prolongation for another 30 days, or discontinuation of treatment was decided by the Investigator.
Whole blood sample for hematology analysis was collected at visit V1 (between Day -7 and Day 0), visit V3 (Day 30+3 days), Visit V4 (Day 60t 3 days) and Visit V5 (Day 90t 3 days).
The result from visit V1 (between Day -7 and Day 0) was used as a baseline value for the safety evaluation criteria.
Each time 1 ml of the peripheral whole blood was collected on a tube with anti-coagulant (EDTA) and gently inverted several times. A complete blood count: WBC with details of lymphocytes, monocytes and polynuclear cells (neutrophils, eosinophils and basophils); Red blood cells (RBC); Hematocrit (HCT); Hemoglobin (HGB); Reticulocytes (RETIC); Mean corpuscular volume (MCV); Mean Corpuscular Hemoglobin (MCH); Mean Corpuscular Hemoglobin Concentration (MCHC); platelets count (PLT) was performed.
Whole blood sample for biochemistry analysis was collected at visit V1 (between Day -7 and Day 0), visit V3 (Day 30+3 days), Visit V4 (Day 60t 3 days) and Visit V5 (Day 90t 3 days).
Each time 1.3 ml of the peripheral whole blood was collected on lithium heparin tube and gently inverted several times. Next, sample was centrifuged at 2500 G for 5 minutes at room temperature and heparin plasma will be collected. The following biochemical parameters: Albumin, Alanine transaminase (ALT), Alkaline phosphatase (ALP), creatinine, globulins, glucose, Total proteins, Urea, Albumin/globulin ratio and urea/creatinine ratio were analyzed.

[3] = human healthy volunteers, cited from earlier work; for MIV-701/MIV06404 ratio: single oral administration
[4] = dogs with periodontal disease, 90-day treatment
[5] = Day 30, 25 or 50 mg/kg/day oral
[6] = Day 60, 25 or 50 mg/kg/day oral
[7] = Day 90, all dogs 50 mg/kg/day for last 30 days

## CC(C)C[C@H](NC(=O)c1ccc(-c2csc(N3CCN(C)CC3)n2)cc1)C(=O)N1C[C@H](F)[C@H]2OCC(O)(O)[C@H]21 [MIV-701 besylate salt, N-[(S)-1-((3aS,6S,6aS)-6-Fluoro-S-oxo-hexahydro-furo[3,2-b]pyrrole-4-carbony)-3-methyl-butyl]-4-[2-(4-methyl-piperazin-1-yl)-thiazol-4-yl]-benzamide benzenesulphonate]
[1]; oral once daily for 14 days, 1, 10 and 100 mg/kg
  tolerance: well tolerated at all doses
[1]; oral once daily for 14 days, regardless of the dose
  signs of toxicity: No obvious signs of toxicity
[2]; [4]
  death and Serious Adverse Event (SAE): No death and no Serious Adverse Event (SAE)
  evolution of blood cell count and clinical biochemistry parameters: No safety concern
[2]; dogs with periodontal disease, once-a-day 25 and 50 mg/kg/day, 90-day treatment period
  tolerance: well tolerated
[2]; [5]
  Alanine transferase: 37,9 U/L
  Albumin: 26,3 g/L
  Albumin/Globulin ratio: 0,61
  Alkalin phosphatase: 31,5 U/L
  BUN/Creatinine ratio: 17,8
  Basophil: 0,03 10^9/L
  Creatinine: 57,8 µmol/L
  Eosinophil: 1,3 10^9/L
  Globulin: 43,6 g/L
  Glucose: 5,3 mmol/L
  HCT: 41,8%
  HGB: 14,2 g/DL
  Lymphocyte: 1,7 10^9/L
  MCH: 21,5 pg
  MCHC: 33,9 g/DL
  MCV: 63,5 fL
  Monocyte: 0,8 10^9/L
  Neutrophil: 7,7 10^9/L
  Platelet: 381,3
  RBC: 6,6 10^12/L
  Reticulocyte: 32,0 K/µL
  Total calcium: 2,4 mmol/L
  Total protein: 7,0 g/dL
  Urea: 4,0 mmol/L
[2]; [6]
  Alanine transferase: 41,7 U/L
  Albumin: 26,9 g/L
  Albumin/Globulin ratio: 0,65
  Alkalin phosphatase: 31,6 U/L
  BUN/Creatinine ratio: 21,7
  Basophil: 0,03 10^9/L
  Creatinine: 62,7 µmol/L
  Eosinophil: 1,2 10^9/L
  Globulin: 40,6 g/L
  Glucose: 5,7 mmol/L
  HCT: 40,0%
  HGB: 13,6 g/DL
  Lymphocyte: 1,7 10^9/L
  MCH: 21,8 pg
  MCHC: 33,8 g/DL
  MCV: 64,6 fL
  Monocyte: 0,7 10^9/L
  Neutrophil: 7,0 10^9/L
  Platelet: 384,8
  RBC: 6,2 10^12/L
  Reticulocyte: 22,9 K/µL
  Total calcium: 2,3 mmol/L
  Total protein: 6,8 g/dL
  Urea: 5,4 mmol/L
[2]; [7]
  Alanine transferase: 36,8 U/L
  Albumin: 28,3 g/L
  Albumin/Globulin ratio: 0,65
  Alkalin phosphatase: 45,4 U/L
  BUN/Creatinine ratio: 22,8
  Basophil: 0,02 10^9/L
  Creatinine: 60,2 µmol/L
  Eosinophil: 1,2 10^9/L
  Globulin: 43,0 g/L
  Glucose: 5,7 mmol/L
  HCT: 40,1%
  HGB: 13,6 g/DL
  Lymphocyte: 1,7 10^9/L
  MCH: 22,2 pg
  MCHC: 33,8 g/DL
  MCV: 65,7 fL
  Monocyte: 0,9 10^9/L
  Neutrophil: 8,3 10^9/L
  Platelet: 423,0
  RBC: 6,2 10^12/L
  Reticulocyte: 29.5 K/µL
  Total calcium: 2,4 mmol/L
  Total protein: 7,1 g/dL
  Urea: 5,4 mmol/L
[2]; of 10 dogs, spontaneously resolved under treatment
  dogs with one episode of diarrhea of mild intensity for 2 days: 2 dogs
[3]; single administrations, dose not stated
  MIV-701/MIV-06404 exposure ratio: 0.03
[3]; 25 mg
  MIV-701/MIV06404 ratio: 0.01
[3]; 75 mg
  MIV-701/MIV06404 ratio: 0.02
[3]; 150 mg
  MIV-701/MIV06404 ratio: 0.03
[3]; 300 mg
  MIV-701/MIV06404 ratio: 0.04
